Values quoted from earlier work in EP4574138A1, “A TABLET COMPOSITION COMPRISING IVACAFTOR” (Sanovel Ilac Sanayi Ve Ticaret Anonim Sirketi, priority 2023, dated 2025).

Details: background description of the drug substance

For `CC(C)(C)c1cc(C(C)(C)C)c(NC(=O)c2c[nH]c3ccccc3c2=O)cc1O` [Ivacaftor, N-(2,4-di-tert-butyl-5-hydroxyphenyl)-1,4-dihydro-4-oxoquinoline-3-carboxamide], the “solubility in water (practically insoluble in water)” value is listed as < 0.05 microgram/mL.
